In patent publication US20200384072A1, “THERAPY OF IONIZING RADIATION-INDUCED DISORDERS” (SCK-CEN, priority 2019, published 2020):

What was measured:
Cx43 hemichannels [1] = target: T1, Cx43 hemichannels (Homo sapiens, UniProt P17302); assay: Propidium iodide dye uptake assay after irradiation, TICAE cells; format: cell-based
T1 construct: endogenous in cells; host or cells: TICAE and TIME cells (human endothelial cell lines)
Source text: (§1) Hemichannel opening was also investigated by dye uptake studies making use of the hemichannel permeable fluorescent tracer propidium iodide (PI; MW 668.4 Da). In addition, dextran fluorescein 10 kDa dye was used to assess membrane integrity and occurrence of cell death. PI stains cells with open hemichannels, late apoptotic and necrotic cells, while dextran fluorescein only stains late apoptotic and necrotic cells. Therefore, PI-positive and dextran fluorescein-negative cells are a measure for hemichannel opening while dextran fluorescein-positive cells are a measure for dead cells.
TICAE and TIME cells were seeded in a 24-well plate at a density of 1.25×10^5 and 1.5×10^5 cells/well, respectively, in six biological replicates. Three days later, cells reached 100% confluence. Thirty minutes before irradiation, cells were refreshed with 1 ml medium alone or with medium supplemented with 100 μM TAT-Gap19 (Genosphere Biotechnologies, Paris, France). For fractionated irradiation, cells were refreshed with 1.5 ml medium/well. At different time points after irradiation (1, 6 and 72 h), cells were washed twice with HMS supplemented with 25 mM HEPES (Sigma-Aldrich Co. LCC, Diegem, Belgium) (HBSS-HEPES). Afterwards, the cells were incubated with 1 mM PI and 200 μM dextran fluorescein (10 kDa) (Life Technologies, Merelbeke, Belgium), dissolved in HBSS-HEPES for 5 minutes followed by 5 times washing with MSS-HEPES. Finally, the fluorescence was measured using an IncuCyte ZOOM® system (Essen BioScience, Ann Arbor, Mich., USA) by using different channels (TRITC, FITC and phase contrast) and a 10× objective Fluorescence signal was normalized to cell number.

Cx43 hemichannels [2] = target: T1, Cx43 hemichannels; assay: Propidium iodide dye uptake assay after irradiation, TIME cells; format: cell-based
Source text: as §1
TICAE and TIME cells were seeded in a 24-well plate at a density of 1.25×10^5 and 1.5×10^5 cells/well, respectively, in six biological replicates. Three days later, cells reached 100% confluence. Thirty minutes before irradiation, cells were refreshed with 1 ml medium alone or with medium supplemented with 100 μM TAT-Gap19 (Genosphere Biotechnologies, Paris, France). For fractionated irradiation, cells were refreshed with 1.5 ml medium/well. […] Finally, the fluorescence was measured using an IncuCyte ZOOM® system (Essen BioScience, Ann Arbor, Mich., USA) by using different channels (TRITC, FITC and phase contrast) and a 10× objective Fluorescence signal was normalized to cell number.

TIME cells [3] = assay: Cell death, Annexin V and Caspase 3/7 live cell imaging, TIME cells; format: cell-based, human
Procedure: TICAE and TIME cells were seeded in 96 well plates at a density of 10000 cells/well in 8 biological replicates. After three days, cells were at 100% confluence. At 30 minutes before X-ray exposure, cells were refreshed with 200 μl medium supplemented with Caspase 3/7 reagent (1:1000 dilution) and Annexin V reagent (1:200 dilution) (Essen Bioscience, United Kingdom) with or without 100 μM TAT-Gap19 (Genosphere Biotechnologies, Paris, France). Fluorescence signals were measured from 4 h until 100 h after irradiation by imaging every 2 hours using the IncuCyte ZOOM® system (Essen BioScience, Ann Arbor, Mich., USA). Different channels (TRITC, FITC and phase contrast) and a 10× objective were used. Spectral unmixing set as 8% of red removed from green was applied. The IncuCyte software's processing definition was set to recognize red (Annexin V) and green (Caspase 3/7) stained cells, making use of the Top-Hat background subtraction method. Fluorescence signal was normalized to cell count.

TIME cells [4] = assay: Senescence-associated β-galactosidase CPRG assay, TIME cells; format: cell-based, human
Procedure: TICAE and TIME cells were seeded in 96 well plates at a density of 10000 cells/well in 16 replicates. Three days after, cells were at 100% confluent. At 30 minutes before X-ray exposure, the cells were refreshed with 150 μl medium alone or with medium supplemented with 100 μM TAT-Gap19 (Genosphere Biotechnologies, Paris, France). For 7 d and 9 d post irradiation experiments, the medium was refreshed once, while for 14 d post irradiation experiment the medium was refreshed twice with 200 μl medium alone or with medium supplemented with 100 μM TAT-Gap19. At 7, 9 and 14 days post irradiation, cell number was determined using an Incucyte® ZOOM life cell analysis system and related software (Essen Bioscience, Hertfordshire, United Kingdom). Afterwards, the senescence associated β-galactosidase activity in the cells was determined using the chlorophenol red β-D-galactopyranoside (CPRG) assay as described previously. The cells were washed with PBS and lysed using M-PER™ buffer (Thermo Fisher Scientific, Asse, Belgium). Subsequently, 1×CPRG substrate (2 mM Chloropenol Red β-D-galactopyranoside in CPRG assay buffer containing 50 mM KPO4, 1 mM MgCl2, pH 6) (Sigma-Aldrich, Overijse, Belgium) was added to each well and the plates incubated for 18 h at 37° C. without CO2. A CLARIOstar® microplate reader (BMG Labtech, Temse, Belgium) was used to measure the absorbance at 570 nm.

[5] = target: hemichannels composed of Cx43 (Homo sapiens, UniProt P17302); details: cited from earlier work
[6] = tested on: non-alcoholic fatty liver mouse model; details: cited from earlier work
[7] = 100 μM TAT-Gap19, fractionated 5 Gy, 72 h
[8] = 100 μM TAT-Gap19, single irradiation, 72 h p.i.

T1 sequence (P17302 whole entry): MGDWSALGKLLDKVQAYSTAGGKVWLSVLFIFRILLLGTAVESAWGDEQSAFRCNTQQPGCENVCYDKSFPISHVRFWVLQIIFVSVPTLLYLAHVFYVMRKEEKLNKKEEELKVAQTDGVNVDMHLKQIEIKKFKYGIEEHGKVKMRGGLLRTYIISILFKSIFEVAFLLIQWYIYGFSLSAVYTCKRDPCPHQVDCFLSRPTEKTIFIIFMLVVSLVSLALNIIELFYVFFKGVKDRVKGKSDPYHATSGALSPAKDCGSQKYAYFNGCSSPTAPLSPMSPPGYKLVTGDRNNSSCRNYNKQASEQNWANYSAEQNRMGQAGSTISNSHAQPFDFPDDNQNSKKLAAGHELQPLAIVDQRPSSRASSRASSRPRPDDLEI
Chain of hemichannels composed of Cx43 (P17302 whole entry): as above

With “TAT-Gap19: connexin mimetic peptide, amino-acids 128-136 of the CL of Cx43 (SEQ ID NO: 2), Gap19 linked to TAT sequence; Cx43 hemichannel inhibitor (YGRKKRRQRRRKQIEIKKFK)” the “radiation-induced PI dye uptake” value (Cx43 hemichannels [1]; [7]) was “had no effect”, the “radiation-induced PI dye uptake” value (Cx43 hemichannels [1]; 100 μM TAT-Gap19, single 5 Gy, 1 h p.i.) was “Significant inhibition” and the “radiation-induced PI dye uptake” value (Cx43 hemichannels [1]; [8]) was “most clear and significant at the 72 h p.i. time point”. For the same substance, the “radiation-induced PI dye uptake” value (Cx43 hemichannels [2]; [7]) was “had no effect”, the “radiation-induced PI dye uptake” value (Cx43 hemichannels [2]; [8]) was “most clear and significant at the 72 h p.i. time point” and the “Annexin V” value (TIME cells [3]; 100 μM TAT-Gap19, 0 Gy, 12-24 h p.i. time window) was “transiently reduced Annexin V”. The “Annexin V elevation” value (TIME cells [3]; 100 μM TAT-Gap19, 5 Gy, 4-48 h p.i. time window) was “significantly reduced Annexin V elevation”, the “SA β-gal activity” value (TIME cells [4]; 100 μM TAT-Gap19, 0 Gy, 0.1 Gy and 5 Gy, 7 d p.i.) was “significantly reduced SA β-gal activity in all conditions” and the “SA β-gal activity (radiation responses)” value (TIME cells [4]; 100 μM TAT-Gap19, 0.1 Gy and 5 Gy, 14 d p.i.) was “significantly inhibited these responses”. For the same substance, the “SA β-gal activity” value (TIME cells [4]; 100 μM TAT-Gap19, 5 Gy, 9 d p.i.) was “significantly reduced SA β-gal activity”, the “SA β-gal activity” value (TIME cells [4]; 100 μM TAT-Gap19, control condition, 9 d p.i.) was “unexpectedly increased SA β-gal activity” and the “half-time of Cx43 hemichannel block” value [5] was 100 s. The IL-1B [6] was “significantly decrease” and the TNF-α [6] was “significantly decrease”.
